In patent US11014902B2, “MYC G-quadruplex stabilizing small molecules and their use” (The United States of America, as represented by the …, priority 2015, dated 2021):
Where two headings read alike, the source gives them in different places.

What was measured:
L363 cells = assay: L363 cell viability (MTS); assay type: cell-based, human; conditions: Homo sapiens
Experimental: Since two thirds of multiple myeloma cases involve deregulated c-MYC expression (Kuehl and Bergsagel, Blood 2012, 120, 2351; Shou, et al., Proc Natl Acad Sci USA 2000, 97, 228), we elected to evaluate the cell viability effects of Compound 1 in a multiple myeloma model. […] This suppression was maintained over 72 hours, which is notable given the characteristic rapid replenishment of the protein—a phenomenon that complicates targeting c-Myc at the protein level (FIG. 4C). This effect was maintained across a genetically diverse set of 4 multiple myeloma lines. We observed decreases in c-MYC translation in all lines tested, and this effect also correlated with decreases in viability (FIG. 4D).
Human multiple myeloma and Burkitt's Lymphoma cell lines L363, CA46, MM-1R, KMS-11, and MM-1S were cultured and authenticated as previously described (Simmons, et al., Molecular oncology 2014, 8, 261). All plasma derived cell lines were cultured in RPMI-1640 (2 mM L-glutamine, 10% fetal bovine serum (FBS), 100 U/ml penicillin, 100 μg/ml streptomycin: Gibco) and incubated at 37° C. with 5% CO2. Viability experiments were performed in quadruplicate on 96-well plates (Costar) at designated time and dose points. MTS reagent was then directly added, incubated at 37° C. for 90 min, and absorbance of MTS formazan was read at 500 nm on an Omega 640 spectrophotometer. Percentage cell viability was normalized to the absorbance of untreated (DMSO) wells. In the case of cells harvested for their protein or RNA, pellets were flash frozen and stored at −80° C. overnight prior to use. […]

[1] = test system: c-MYC expression in L363 cells; assay: Inhibition of c-MYC expression in L363 cells (Peggy); assay type: cell-based, human; conditions: Homo sapiens, L-363, L363 cells, at 10 μM; read-out: Peggy (% c-Myc expression compared to untreated)
From the text: FIG. 10 illustrates an exemplary procedure for generating analogs of Compound 1. The amine group of Compound 1 can be varied in reductive aminations to provide additional analogs. […] The table also provides an indication of an exemplary commercial source for the compounds, or (if applicable) an indication that the compound is new.

[2] = test system: MYC expression in L363 cells; assay: Gene expression analysis (Nanostring, qPCR), MYC; assay type: cell-based, human; conditions: for c-Myc expression (qPCR): L363 cells
Experimental: (§1) Gene expression analysis was performed on a panel of 770 cancer-associated genes in a multiplexed (nanostring) transcriptional assay. In addition to c-MYC itself, several c-Myc target genes were included in the panel, as were a number of other quadruplex-driven genes. […] Additionally, a third data set was collected comparing Compound 1 treatment to JQ-1 (a BET-bromodomain inhibitor) and quarfloxin (another quadruplex-binding small molecule).
(§2) The effects of Compound 1 on a number of known quadruplex-driven genes in the panel were examined further (FIG. 6). Expression levels of MYC, RB1, VEGFA, KRAS, and HIF1α, all of which are reported to be under the control of promoter G4s, and are expressed in L363 cells, were included in the panel of genes evaluated by Nanostring as discussed above. […] These changes in gene expression are in line with biophysical measurements of compound affinity. Corresponding data showing similar results is presented for Compounds 1 and 23 in FIGS. 14A and 14B. […] These observations further highlight the ability of Compound 1 and Compound 23 to specifically target the expression of c-Myc and related pathways.
(§3) The phenotype for c-MYC genetic knockdown in multiple myeloma was achieved through lentiviral transduction of shRNA for c-MYC, derived from the spinoculation of 293T cells and plasmids grown in STBL3 E. coli, and isolated with the Qiagen Plasmid Midi Kit. Aliquots of the plasmids were generously provided by Art Shaffer. RNA of treated myeloma cells at designated time points was isolated with the Qiagen RNeasy kit, and used with the nCounter Human Cancer Reference Kit (NanoString Technologies), surveying changes in expression for […] cancer-related human genes and 6 reference genes. Quantitative changes in expression were analyzed and grouped in the form of a heat map using the programming language, R. All other quantitative statistical packing was performed in GraphPad Prism.

[3] = test system: RB1, VEGFA, KRAS, HIF1α, BCL2 expression in L363 cells; assay: Gene expression analysis (Nanostring, qPCR), other G4-associated genes; assay type: cell-based, human; conditions: for expression of other G-quadruplex containing genes (qPCR): L363 cells
Experimental: as §1, §2, §3

A549/ATCC = assay: NCI-60 cell growth (SRB); assay type: cell-based; conditions: Non-Small Cell Lung Cancer, 10 μM, 48 hours
Experimental: (§4) This example illustrates that Compounds 1 and 23 can be used in inhibit the growth of c-Myc expressing cancer cell lines in vitro. The NCI-60 panel of cancer cell lines (see Shoemaker, Nat. Rev. Cancer, 6, 813-823, 2006, and dtp.cancer.gov/discovery_development/nci-60/) was assayed for cell growth in the presence of 10 μM Compound 1 or Compound 23 for 48 hours. At 48 hours, the assay was terminated by fixation with TCA and determination of relative cell counts by addition of Sulforhodamine B (SRB, see Alley et al., Cancer Research, 48: 589-601, 1988.). Growth percent was determined by comparison of SRB reading of a duplicate plate of cells taken at the time of compound addition to the SRB reading at the termination of the treatment. The following table provides a summary of the percent of growth of each cell line in the panel compared to control (no treatment), as well as the mean delta and range of percent growth compared to control across the panel of cell lines for each treatment condition.

EKVX = assay: NCI-60 cell growth (SRB); assay type: cell-based; conditions: Non-Small Cell Lung Cancer, 10 μM, 48 hours
Experimental: as §4

HCC-2998 = assay: NCI-60 cell growth (SRB); assay type: cell-based; conditions: HCC-2998, Colon Cancer; 10 μM, 48 hours
Experimental: as §4

LOX IMVI = assay: NCI-60 cell growth (SRB); assay type: cell-based; conditions: Melanoma, 10 μM, 48 hours
Experimental: as §4

MOLT-4 = assay: NCI-60 cell growth (SRB); assay type: cell-based; conditions: MOLT-4, Leukemia; 10 μM, 48 hours
Experimental: as §4

PC-3 = assay: NCI-60 cell growth (SRB); assay type: cell-based; conditions: PC-3, Prostate Cancer; 10 μM, 48 hours
Experimental: as §4

RXF 393 = assay: NCI-60 cell growth (SRB); assay type: cell-based; conditions: RXF 393, Renal Cancer; 10 μM, 48 hours
Experimental: as §4

SW-620 = assay: NCI-60 cell growth (SRB); assay type: cell-based; conditions: SW-620, Colon Cancer; 10 μM, 48 hours
Experimental: as §4

[4] = test system: NCI-60 panel of cancer cell lines; assay: NCI-60 cell growth (SRB), summary across the panel; assay type: cell-based; conditions: 10 μM, 48 hours; for Growth Percent, Delta: delta across the panel; for Growth Percent, Mean: mean across the panel; for Growth Percent, Range: range across the panel
Experimental: as §4

[5] = L-363, viability of L363 cells, read-out: IC50
[6] = 48 hours, 10 μM BRACO-19, 10 μM Compound 1, 7.5 μM Compound 23

| SMILES | IC50 (L363 cells; [5]) | activity at 10 µM [1] | c-Myc expression (qPCR) [2, 6] | expression of other G-quadruplex containing genes (qPCR) [3, 6] | Growth Percent (A549/ATCC) | Growth Percent (EKVX) | Growth Percent (HCC-2998) | Growth Percent (LOX IMVI) | Growth Percent (MOLT-4) | Growth Percent (PC-3) | Growth Percent (RXF 393) | Growth Percent (SW-620) | Growth Percent, Delta [4] | Growth Percent, Mean [4] | Growth Percent, Range [4] | also measured |
| --- | --- | --- | --- | --- | --- | --- | --- | --- | --- | --- | --- | --- | --- | --- | --- | --- |
| Cc1ccc(NC(=O)c2c(C)oc3ccc(O)c(CN4CCCCCC4)c23)cc1 [Compound 1] | 7.6 µM | 50% | reduced c-Myc expression | minimally affecting expression of other G-quadruplex containing genes | 85.87% | 83.79% | 116.36% | 88.87% | 92.81% | 79.90% | 81.36% | 85.97% | 32.50% | 88.39% | 60.47% | IC50 (L363 cells; L-363, 72 h, after 72 hours, read-out: IC50 myeloma cell viability): 7.6 ± 1.1 µM; MYC expression (nanostring) ([2]; 10 μM, 2 h to 48 h): substantially reduced; MYC expression (qPCR) ([2]; 5, 10 or 12.5 μM, 48 hours): greatly reduced; expression of other G4-associated genes (nanostring) ([3]; 10 μM, 2 h to 48 h): minimally affected; expression of other genes (qPCR) ([3]; 5, 10 or 12.5 μM, 48 hours): minimally affected |
| Cc1oc2ccc(O)c(CN3CCCCCC3)c2c1C(=O)Nc1ccc(C(F)(F)F)cc1 [Compound 23] | 3.6 µM | 0.44% | reduced c-Myc expression | minimally affecting expression of other G-quadruplex containing genes | 61.22% | 64.06% | 11.22% | 39.15% | 64.31% | 45.70% | 50.40% | 67.44% | 67.00% | 58.56% | 94.23% | IC50 (L363 cells; L-363, L363, read-out: IC50): 3.64 µM; c-Myc expression (qPCR) ([2]; 5 μM, 24 or 48 hours): reduced c-Myc expression; expression of other G-quadruplex containing genes (qPCR) ([3]; 5 μM, 24 or 48 hours): minimally affecting expression of other G-quadruplex containing genes |
